Assays:
[1] = target: hCA I (Homo sapiens, UniProt P00915); experiment: Stopped flow CO2 hydrase assay, hCA I inhibition; assay type: biochemical
[2] = test system: MCF-7 breast cancer cells; experiment: Annexin V-FITC/propidium iodide apoptosis assay; assay type: cell-based, human; conditions: treatment at IC50
From the text: […]. This represents 57 folds total increase relative to the control in apoptotic cells.
IC50 values (concentration of sample
4. Annexin V-FITC Apoptosis Assay
Cells were then rinsed in binding

[3] = test system: MCF-7 breast cancer cells; experiment: Cell cycle analysis by flow cytometry

Sequence of hCA I (P00915 whole entry): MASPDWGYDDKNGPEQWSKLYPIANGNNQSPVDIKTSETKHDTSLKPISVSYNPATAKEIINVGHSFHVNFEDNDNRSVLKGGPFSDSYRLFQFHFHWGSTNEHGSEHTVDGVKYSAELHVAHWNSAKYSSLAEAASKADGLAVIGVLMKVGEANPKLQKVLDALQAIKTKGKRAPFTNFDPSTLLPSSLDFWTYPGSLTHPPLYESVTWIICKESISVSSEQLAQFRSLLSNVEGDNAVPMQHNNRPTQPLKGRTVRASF

O=C(CN1C(=O)SC(=Cc2cccs2)C1=O)c1cc2ccccc2oc1=O [11a, 3–(2-Oxo-2–(2-oxo-2H-chromen-3-yl)ethyl)-5-(thiophen-2-ylmethylene)thiazolidine-2,4-dione]
Ki [1]: > 100 µM
Apoptosis Total ([2]; MCF-7, AV-FITC/PI positive stained cells): 29.93%
Apoptosis Early ([2]; MCF-7, AV-FITC/PI, lower right quadrant): 4.23%
total increase in apoptotic cells relative to the control ([2]; MCF-7, AV-FITC/PI): 57 folds
Necrosis ([2]; MCF-7, AV-FITC/PI, upper left quadrant): 17.39%
Apoptosis Late ([2]; MCF-7, AV-FITC/PI, upper right quadrant): 25.7%
decrease in G2-M phase compared to the control [3]: 2.6 folds
increase of cell population at Sub-G1 compared to the control [3]: 19.7 folds

— PMC8745369, “Discovery of 2,4-thiazolidinedione-tethered coumarins as novel selective inhibitors for carbonic anhydrase IX and XII isoforms” (Journal of Enzyme Inhibition and Medicinal Chemistry, 2022)
